{
  "source": "ChEMBL document CHEMBL1127220",
  "about": "“3-hydroxy-3-cyclobutene-1,2-dione: Application of novel carboxylic acid bioisostere to an in-vivo active non-tetrazole angiotensin-II antagonist” (Bioorg Med Chem Lett, 1993)",
  "data": [
    {"system": "Rattus norvegicus", "assay": "Maximum % change of AII-supported portion of mean arterial pressure at 3 mg/kg, i.d.", "assay_type": "functional, Artery", "conditions": "route intraduodenal", "units": {"Change": "%"}, "values": [
      {"smiles": "O=c1c(O)c(-c2ccccc2-c2ccc(CNc3nc(C(F)(F)F)nc4c3CCCC4)cc2)c1=O", "Change": -52},
      {"smiles": "O=S(=O)(Nc1ccccc1-c1ccc(CNc2nc(C(F)(F)F)nc3c2CCCC3)cc1)C(F)(F)F", "Change": -31},
      {"smiles": "CCCCc1nc(Cl)c(CO)n1Cc1ccc(-c2ccccc2-c2nnn[nH]2)cc1", "note": "[LOSARTAN]", "Change": -72},
      {"smiles": "O=C(O)c1ccccc1-c1ccc(CNc2nc(C(F)(F)F)nc3c2CCCC3)cc1", "Change": -62},
      {"smiles": "FC(F)(F)c1nc2c(c(NCc3ccc(-c4ccccc4-c4nn[nH]n4)cc3)n1)CCCC2", "Change": -75}
    ]}
  ]
}
